In US6890520B2, “Thermally stable ferulic acid derivatives” (Wakayama Prefecture, priority 2003, dated 2005):

How the values were obtained:
[1] = Thermal decomposition temperature by thermogravimetric-differential thermal analyzer TG/DTA 6200; type: physicochemical
Protocol: A thermal decomposition temperature of bis-4,4′-(2-ethoxycarbonyl-1-ethenyl)-2,2′-methoxyphenoxymethane prepared in Example 1 was determined by using a thermogravimetric-differential thermal simultaneous analyzer “TG/DTA 6200” (commercially available from Seiko Instruments Inc.).
A thermal decomposition temperature of bis-4,4′-(2-2-ethyl-1-hexyloxycarbonyl-1-ethenyl)-2,2′-methoxyphenoxymethane prepared in Example 9 was determined by using a thermogravimetric-differential thermal simultaneous analyzer “TG/DTA 6200” (commercially available from Seiko Instruments Inc.).
A thermal decomposition temperature of bis-4,4′-(2-dodecyloxycarbonyl-1-ethenyl)-2,2′-methoxyphenoxymethane prepared in Example 10 was determined by using a thermogravimetric-differential thermal simultaneous analyzer “TG/DTA 6200” (commercially available from Seiko Instruments Inc.).

[2] = related art statement; cited from earlier work

Row | SMILES | thermal decomposition point [1] | decomposition temperature [2]
1 | CCOC(=O)C=Cc1ccc(OCOc2ccc(C=CC(=O)OCC)cc2OC)c(OC)c1 [Example 1, Bis-4,4′-(2-ethoxycarbonyl-1-ethenyl)-2,2′-methoxyphenoxymethane] | 359 °C | –
2 | CCCCC(CC)COC(=O)C=Cc1ccc(OCOc2ccc(C=CC(=O)OCC(CC)CCCC)cc2OC)c(OC)c1 (stereo not shown) [Example 9, Bis-4,4′-(2-2-ethyl-1-hexyloxycarbonyl-1-ethenyl)-2,2′-methoxyphenoxymethane] | 355 °C | –
3 | CCCCCCCCCCCCOC(=O)C=Cc1ccc(OCOc2ccc(C=CC(=O)OCCCCCCCCCCCC)cc2OC)c(OC)c1 [Example 10, Bis-4,4′-(2-dodecyloxycarbonyl-1-ethenyl)-2,2′-methoxyphenoxymethane] | 318 °C | –
4 | COc1cc(/C=C/C(=O)O)ccc1O [ferulic acid] | – | 176 °C
